Earlier results, collected in patent US11304990B2, “Use of known compounds—intracellular infections” (ISR IMMUNE SYSTEM REGULATION HOLDING AB (PUBL), priority 2017, dated 2022).

Experiments:
[1] = tested on: pituitary type I GnRH receptors
[2] = tested on: CD4 T-lymphocyte; conditions: diabetes-prone BB rats exhibiting an AIDS-like lymphocyte profile

## pyroGlu-His-Trp-Ser-Tyr-Gly-Leu-Arg-Pro-Gly-NH2 [GnRH I, decapeptide gonadotropin releasing hormone]
[1]; central pituitary binding compared with breast cancer cells
  fold higher affinity, pituitary vs breast cancer cell receptors: 1000 fold
[1]; central pituitary binding, read-out: binding affinity (Kd)
  Kd: 4.8 nM
[2]
  CD4 T-lymphocyte numbers: increased
